Measurements from US20240262835A1, “PRMT5 INHIBITING COMPOUNDS AND USES THEREOF” (ANTENGENE DISCOVERY LIMITED, priority 2023, published 2024).

Key:
[1] = test system: cryopreserved hepatocytes
CYP2C9 = CYP2C9 (Homo sapiens (Human), UniProt P11712); assay: CYP isoforms inhibitory assay in human liver microsome, CYP2C9; format: in vitro ADME; conditions: substrate diclofenac
Protocol: CYP isoforms inhibitory activities of test compounds were measured in human liver microsome.
Preparation details of these substrates are given in below table. The substrate stock solution was stored in a −20° C. freezer. Prior to use, the substrate stock solution was removed from the freezer and allowed to rise to room temperature. Then the substrate stock solution was mixed on a whirly mixer for 30 seconds.
HLMs were stored in a −80° C. freezer. Prior to use, the pooled HLM was removed from the freezer and allowed to thaw in a 37° C. water bath and then stored on wet ice.
The positive control inhibitors and their concentrations used by each isozyme are summarized below.
All samples were incubated in a 37° C. water bath, with three parallels for each concentration of the test compound and two parallels for each concentration of the positive control inhibitor. 100 μL of microsome working solution was taken and added 2 μL of the test product or positive inhibitor working solution. 2 μL solvents was added to the solvent control, and put in a water bath to pre-incubate for 10 min. After pre-incubation, 98 μL of NADPH regeneration solution was added to all samples to start the reaction. Then the mixture was put back in the water bath and incubated for a certain period of time.
The reaction was quenched by 200 μL stop solution. […]
IC50 values were determined using 3- or 4-parameter logistic equation.

[2] = biological target: hERG potassium ion channel (Homo sapiens (Human), UniProt Q12809); assay: hERG potassium ion channel inhibition assay (automated patch-clamp, CHO-hERG cells); format: cell-based; conditions: Qpatch, highest test concentration 40.00 μM
Sequence of hERG potassium ion channel (Q12809 whole entry): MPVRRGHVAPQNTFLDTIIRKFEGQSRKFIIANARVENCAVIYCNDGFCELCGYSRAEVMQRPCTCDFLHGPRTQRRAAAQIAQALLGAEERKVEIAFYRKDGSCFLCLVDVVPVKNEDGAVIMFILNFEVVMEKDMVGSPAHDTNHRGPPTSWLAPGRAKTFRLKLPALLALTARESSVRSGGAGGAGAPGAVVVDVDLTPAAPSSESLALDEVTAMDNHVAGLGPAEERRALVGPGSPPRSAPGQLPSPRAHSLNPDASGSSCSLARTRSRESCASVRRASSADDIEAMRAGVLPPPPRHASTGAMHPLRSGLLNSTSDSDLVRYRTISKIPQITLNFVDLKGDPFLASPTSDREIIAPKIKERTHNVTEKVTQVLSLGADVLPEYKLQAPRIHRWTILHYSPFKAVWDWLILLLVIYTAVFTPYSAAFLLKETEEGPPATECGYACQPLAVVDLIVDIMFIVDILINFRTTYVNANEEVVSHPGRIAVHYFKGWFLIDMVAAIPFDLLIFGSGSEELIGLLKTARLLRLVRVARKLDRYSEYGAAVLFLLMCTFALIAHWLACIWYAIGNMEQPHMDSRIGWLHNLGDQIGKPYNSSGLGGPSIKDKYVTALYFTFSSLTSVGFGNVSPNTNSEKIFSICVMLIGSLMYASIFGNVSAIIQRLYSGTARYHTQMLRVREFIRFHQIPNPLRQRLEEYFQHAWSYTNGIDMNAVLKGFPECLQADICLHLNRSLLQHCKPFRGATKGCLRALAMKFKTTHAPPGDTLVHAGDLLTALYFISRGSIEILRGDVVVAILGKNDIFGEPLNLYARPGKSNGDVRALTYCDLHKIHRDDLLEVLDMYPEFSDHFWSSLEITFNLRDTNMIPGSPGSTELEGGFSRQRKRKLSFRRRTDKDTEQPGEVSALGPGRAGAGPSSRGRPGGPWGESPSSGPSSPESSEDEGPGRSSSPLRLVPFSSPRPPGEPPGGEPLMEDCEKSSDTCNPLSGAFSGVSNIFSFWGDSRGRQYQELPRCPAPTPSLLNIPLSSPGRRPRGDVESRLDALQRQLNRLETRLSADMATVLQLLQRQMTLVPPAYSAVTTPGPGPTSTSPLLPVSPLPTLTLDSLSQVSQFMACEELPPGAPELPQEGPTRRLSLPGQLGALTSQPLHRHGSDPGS
Protocol: Drug-hERG interaction was measured by automated patch-clamp methods, with cisapride as positive control.
1.1 CHO-hERG cells were cultured in 175 cm^2 culture bottle. After the cell density grew to 60-80%, the culture medium was removed, washed with 7 mL of phosphate buffered saline (PBS), and then digested with 3 mL Detachin.
1.2 After the digestion was complete, 7 mL culture solution was added for neutralization, and then centrifuged, the clear solution was sucked, and 5 mL culture solution was added for re-suspension to ensure the cell density was 2˜5×10^6/mL.
The process of single-cell high-impedance sealing and whole-cell pattern formation was all automatically completed by Qpatch instrument. After obtaining whole-cell recording mode, the cell was pinching at −80 millivolts. Before giving a 5-second +40 millivolt depolarization stimulus, a 50-millisecond pre-voltage of −50 millivolts was given first, and then repolarized to −50 millivolts for 5 seconds. Go back to −80 millivolts. This voltage stimulation was applied every 15 seconds, recorded for 2 minutes, then extracellular fluid was given and recorded for 5 minutes, and then the administration process began. The concentration of test compound was given from the lowest test concentration for 2.5 minutes per test concentration. After continuous administration of all concentrations, the positive control 3 μM cisapride was given. At least 2 cells were tested for each concentration (n≥2).
4.1 The compound mother liquor was diluted with DMSO, and 10 μL compound stock solution was added to 20 μL DMSO solution, which was continuously 3-fold diluted to 6 DMSO-concentrations.
4.2 4 μL of test compounds in 6 DMSO-concentrations were added to 396 μL extracellular solution and were 100-fold diluted to 6 intermediate concentrations. Then, 80 μL of test compounds in 6 intermediate concentrations were added to 320 μL extracellular solution and were 5-fold diluted to the final concentration to be tested.
4.3 The highest test concentration was 40.00 μM, and six test concentrations were 40.00, 13.33, 4.44, 1.48, 0.49, 0.16 μM, respectively.
4.5 Entire dilution process for test compound preparation was performed by Bravo instrument.
The experimental data were analyzed by GraphPad Prism 5.0 software.

[3] = test system: human colon cancer cell line HCT116 (WT); assay: In vivo efficacy assay, subcutaneous HCT116 WT xenograft; set-up: species or system Balb/C nude female mouse; conditions: 15 mg/kg PO/QD, 21 days, Balb/C nude mice
Protocol: (§1) The antitumor effect or MTAP/MTA selectivity of the compounds provided herein in the subcutaneously transplanted Balb/C nude female mouse model of human colon cancer cell line HCT116 (WT and MTAP KO) was tested.
(§2) Cell viability and cell count were determined. Cell count of the suspension was adjusted to 1×10^8 cells/mL and mixed with Matrigel in a 1:1 volume. Each mouse for this study were inoculated subcutaneously in the right front flank region with 5×10^6 tumor cells (0.1 mL) for tumor development.
(§3) The randomization started when the mean tumor size reaches approximately 100-150 mm^3. Mice inoculated with HCT116 WT cells were randomized on day 7. Mice inoculated with HCT116 MTAP KO cells were randomized on day 8. All animals were randomly allocated to 5 study groups, each group consisted of 8 animals. Randomization was performed based on randomized block design.
(§4) Tumor volume was measured twice per week in two dimensions using a caliper, and the volume was expressed in mm^3 using the formula: “V=(L×W×W)/2”, where V is tumor volume, L is tumor length (the longest tumor dimension) and W is tumor width (the longest tumor dimension perpendicular to L).

[4] = test system: human colon cancer cell line HCT116 (MTAP KO); assay: In vivo efficacy assay, subcutaneous HCT116 MTAP KO xenograft; set-up: species or system Balb/C nude female mouse; conditions: 15 mg/kg PO/QD, 21 days, Balb/C nude mice
Protocol: as §1, §2, §3, §4

[5] = Hepatic metabolic stability (HMS) assay, rat hepatocytes; conditions: rat, cryopreserved hepatocytes
Protocol: 1) 10 mM test compounds were provided.
2) 30 mM positive control stock solutions: Dissolved accurate amount of positive control compounds in dimethyl sulfoxide (DMSO).
3) 1000× Stock Solution: Diluted 10 mM test compounds and 30 mM positive control compounds to 1 mM and 3 mM with DMSO in 96-well plates.
4) 100× Dosing Solution: Diluted 1 mM test compounds and 3 mM positive control compounds to 100 μM and 300 μM dosing solutions with ACN.
5) Preparation of 0.5×10^6/mL cells suspension: cryopreserved cells were thawed, isolated and suspended in Incubation Medium, then diluted with pre-warmed Incubation Medium to 0.5×10^6 cells/mL.
6) Add 198 μL of pre-warmed cell suspensions in 96-well plates.
7) Preparation of Quenching Plate: Transfer 125 μL of stop solution in a set of pre-labeled 96-well plates.
8) Spike 2 μL dosing solution to each well of 96-well plates in duplicate.
9) For TO Samples, mix to achieve a homogenous suspension for about 1 min, then immediately transfer 25 μL of each sample into well containing 125 μL of ice-cold stop solution followed by mixing.
10) Incubate all plates at 37° C. in a 95% humidified incubator at 5% CO2 to start the reactions with constant shaking.
11) At 15, 30, 60 and 90 min, mix samples and then transfer 25 μL of each sample at each time point to well containing 125 μL of ice-cold stop solution followed by mixing.
12) Medium Control (MC) sample plates (labeled as TO-MC and T90-MC) are prepared in the same way as cell incubation except that medium was used instead of cell suspension.
13) At each corresponding time point, stop the reactions by removing the plates from incubator and mixing with 125 μL of ice-cold stop solution.
14) Vortex the plates immediately on a plate shaker at 600 rpm for 10 minutes. Then, centrifuge all sample plates at 3220×g for 20 min at 4° C.
15) After centrifugation, 80 μL/well of supernatant in the sample plates are transferred to another set of pre-labeled 96-well plates which containing 240 μL of ultra pure water according to the plate map.
16) Analytical plates are sealed and store at 4° C. until LC-MS/MS analysis.
The remaining percents of test articles after incubation were calculated by the follow equations:
Use the following equation of first order kinetics to calculate T1/2 and CLint:

[6] = Hepatic metabolic stability (HMS) assay, mouse hepatocytes; conditions: mouse, cryopreserved hepatocytes
[7] = test system: cryopreserved hepatocytes; assay: Hepatic metabolic stability (HMS) assay, human hepatocytes; conditions: for T1/2 (hepatocytes) H / CLint (liver) H: human hepatocytes; for T1/2 (hepatocytes) H: 1 μM test compound (3 μM positive control); for CLint (liver) H: scaled to liver; for CLint (hep) H: human, hepatocytes
[8] = test system: cryopreserved hepatocytes; assay: Hepatic metabolic stability (HMS) assay, dog hepatocytes; conditions: for T1/2 (hepatocytes) D / CLint (liver) D: dog hepatocytes; for T1/2 (hepatocytes) D: 1 μM test compound (3 μM positive control); for CLint (liver) D: scaled to liver; for CLint (hep) D: dog, hepatocytes

Sequence of CYP2C9 (P11712 whole entry, canonical isoform): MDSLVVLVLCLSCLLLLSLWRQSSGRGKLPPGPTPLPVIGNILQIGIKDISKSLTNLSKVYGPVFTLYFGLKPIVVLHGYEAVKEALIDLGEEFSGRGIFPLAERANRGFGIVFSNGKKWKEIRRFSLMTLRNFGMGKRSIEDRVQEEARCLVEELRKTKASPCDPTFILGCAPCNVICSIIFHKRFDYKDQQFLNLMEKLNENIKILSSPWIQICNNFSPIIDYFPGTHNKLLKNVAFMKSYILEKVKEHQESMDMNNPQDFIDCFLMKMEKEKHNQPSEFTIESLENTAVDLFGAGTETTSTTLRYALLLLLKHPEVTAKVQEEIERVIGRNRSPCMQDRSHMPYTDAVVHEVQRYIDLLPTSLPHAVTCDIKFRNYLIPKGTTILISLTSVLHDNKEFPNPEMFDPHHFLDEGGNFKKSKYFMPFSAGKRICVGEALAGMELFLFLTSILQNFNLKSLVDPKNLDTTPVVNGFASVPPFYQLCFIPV

## CN(C(=O)c1ccc2nc(N)c3cncn3c2c1)C1COc2cc(C(F)(F)F)ccc21 (stereo not shown) [Compound 17]
[1]
  CLint (liver) M: 183.3 mL/min/kg
[1]; mouse
  CLint (hep) M: 15.4 μL/min/10^6
  T1/2 (hepatocytes) M: 1.5 h
CYP2C9
  IC50: > 30 µM
[2]
  IC50: 12.8 µM
[3]
  Tumor growth inhibition (TGI) HCT 116 WT: 66%
[4]
  Tumor growth inhibition (TGI) HCT 116 MTAP KO: −11%

## CN(C(=O)c1ccc2nc(N)c3cncn3c2c1)[C@@H]1COc2cc(C(F)(F)F)ccc21 [Compound 12]
[2]
  IC50: 5.38 µM
[5]
  half-life at 1 μM: 2.26 h
[6]
  half-life at 1 μM: 1.86 h

## CN(C(=O)c1cc2c(cn1)nc(N)c1cncn12)C1COc2cc(C(F)(F)F)ccc21 (stereo not shown) [Compound 19]
[7]
  T1/2 (hepatocytes) H: >3.613 h
  CLint (liver) H: <17.8 mL/min/kg
  CLint (hep) H: <6.4 μL/min/10^6
[8]
  T1/2 (hepatocytes) D: >3.613 h
  CLint (liver) D: <44 mL/min/kg
  CLint (hep) D: <6.4 μL/min/10^6
[2]
  IC50: 13.5 µM
[3]
  Tumor growth inhibition (TGI) HCT 116 WT: 74%
[4]
  Tumor growth inhibition (TGI) HCT 116 MTAP KO: 11%

## CN(C(=O)c1cc2c(cn1)nc(N)c1cncn12)C1COc2cc(C(F)(F)F)ccc21 (stereo not shown) [Compound 21]
[7]
  T1/2 (hepatocytes) H: >3.613 h
  CLint (liver) H: <17.8 mL/min/kg
  CLint (hep) H: <6.4 μL/min/10^6
[8]
  T1/2 (hepatocytes) D: >3.613 h
  CLint (liver) D: <44 mL/min/kg
  CLint (hep) D: <6.4 μL/min/10^6
[2]
  IC50: 13.6 µM
[3]
  Tumor growth inhibition (TGI) HCT 116 WT: 59%
[4]
  Tumor growth inhibition (TGI) HCT 116 MTAP KO: 11%

## CN(C(=O)c1cc2c(cn1)nc(N)c1cncn12)C1CC(F)(F)c2cc(C(F)(F)F)ccc21 (stereo not shown) [Compound 24]
[7]
  T1/2 (hepatocytes) H: >3.613 h
  CLint (liver) H: <17.8 mL/min/kg
  CLint (hep) H: <6.4 μL/min/10^6
[8]
  T1/2 (hepatocytes) D: 3.577 h
  CLint (liver) D: 44.4 mL/min/kg
  CLint (hep) D: 6.5 μL/min/10^6
[2]
  IC50: 24.8 µM
[3]
  Tumor growth inhibition (TGI) HCT 116 WT: 62%
[4]
  Tumor growth inhibition (TGI) HCT 116 MTAP KO: 3%
